What all share (assay type): cell-based, human
The test system of one data set is PANC-1 cells. In words: MTT cell viability assay, PANC-1. Conditions: for cell viability: replicates. An excerpt:
(§1) Pancreatic cancer cell lines PANC-1 (cat. no. CRL-1469), SW1990 (cat. no. CRL-2172) were obtained from ATCC (American Type Culture Collection). Genetically modified isogeneic colon cancer cell lines SW48-PAR and SW48-G12D were obtained from Horizon Discovery Ltd. PANC-1 (human pancreatic cancer, KRas^G12D), SW1990 (human pancreatic cancer, KRas^G12D), SW48-PAR (human colon cancer; parental cell line KRas^wt), and SW48-G12D (human colon cancer; heterozygous knockin of the KRas^G12D activating mutation) cancer cell lines were cultured in Roswell Park Memorial Institute Medium (RPMI; Biosera, Nuaille, France), supplemented with 10% heat-inactivated Fetal Bovine Serum (FBS; Biosera), and with 1% Penicillin/Streptomycin (Biosera). Cells were cultured in sterile T75 flasks with ventilation cap (Sarstedt, Nümbrecht, Germany) at 37 °C in a humidified atmosphere with 5% CO2 in ESCO CelCulture Incubator (ESCO, Friedberg, Germany). Manipulations with the cells were performed in biosafety cabinet (laminar) ESCO Sentinel Gold class II model AC2-4E8 (ESCO).
(§2) After standard harvesting of the cells by trypsin-EDTA (Biosera), 7 × 10^3 cells per well depending on the cell line, were seeded in serum-containing growth medium to 96-well plates and incubated. After 24 h, cells were treated with various concentrations of fragments (32 nM–100 μM), dissolved in serum-containing medium, and incubated under standard conditions. Control wells were treated with medium. Final concentration of serum was 2.5%, final concentration of DMSO was 0.2%. Treatment was for 72 h continuously.
(§3) Afterwards, MTT assay was performed in order to determine cell viability, by adding 20 μL of MTT solution (5 mg/mL in PBS) to each well and after 2 h of incubation at 37 °C, the supernatant was removed. The formazan crystals were dissolved in 100 μL of a 1:1 solution of DMSO (Sigma-Aldrich):EtOH (Molar Chemicals) and the absorbance was measured after 15 min at λ = 570 nm by using a microplate reader (BioTek 800TS, Agilent, Santa Clara, CA, USA). The IC50 values of the fragments were calculated using GraphPad Prism 6 (GraphPad Software, San Diego, CA, USA). The experiments were done in triplicate, and each experiment was repeated two times.
(In general: Tetrazolium assays rely on reduction of a dye to a coloured formazan, in cell work by metabolically active cells.)

The subject of another data set is SW48-PAR cells. In words: MTT cell viability assay, SW48-PAR. Particulars: for cell viability: replicates, in % (unit assumed).
From the text: as §1, §2, §3

Another data set concerns SW48-G12D cells. Put plainly: MTT cell viability assay, SW48-G12D. Conditions: for cell viability: replicates, in % (unit assumed).
From the text: as §1, §2, §3

Where “and” joins values, the source holds several entries; their conditions need not be identical. Equal values may be shown once.

As for `Cc1ncc(CO)c(CNC(=O)CCC2(C)N=N2)c1O` [PhP072, Cc1ncc(CO)c(c1O)CNC(=O)CCC2(C)N=N2], the IC50 in the data set with PANC-1 cells (Homo sapiens, read-out: IC50, antiproliferative activity, PANC-1, MTT, 72 h) turned out to be 22.6 µM. Further, the cell viability was 94.1678 and 97.1333 and 95.7988 and 102.516 and 102.977 and 106.78 in the data set with PANC-1 cells (PANC-1, [PhP072] 3.2e-8 M, in % (unit assumed)); 92.8333 and 84.2333 and 97.1333 and 102.977 (2×) and 103.899 in the data set on PANC-1 cells (PANC-1, [PhP072] 1.6e-7 M); 87.6436 and 92.0919 and 90.4609 and 96.2933 (2×) and 94.7953 in the data set on PANC-1 cells (PANC-1, [PhP072] 8e-7 M); 82.1574 and 83.0471 and 79.785 and 89.6098 and 90.0707 and 84.5396 with PANC-1 cells (PANC-1, [PhP072] 4e-6 M, in % (unit assumed)); 72.9643 and 73.7057 and 70.7401 and 83.3872 and 78.8931 and 79.2388 in the data set on PANC-1 cells (PANC-1, [PhP072] 2e-5 M, in % (unit assumed)); 57.9884 and 55.9125 and 55.7642 and 57.9207 and 64.7194 (2×) in the data set with PANC-1 cells (PANC-1, [PhP072] 0.0001 M). The cell viability with SW48-PAR cells ([PhP072] 3.2e-8 M) was 110.532 and 99.0425 and 106.761 and 103.567 and 100.905; with SW48-PAR cells ([PhP072] 1.6e-7 M) it was 106.815 and 103.774 and 96.677 and 105.91 and 101.544 and 99.8403; in the data set with SW48-PAR cells ([PhP072] 8e-7 M) it was 103.098 and 102.084 and 99.3805 and 101.65 and 100.905 and 100.16; in the data set on SW48-PAR cells ([PhP072] 4e-6 M), 97.3529 and 105.125 and 97.3912 and 92.7061 and 92.8126; in the data set with SW48-PAR cells ([PhP072] 2e-5 M) it was 98.3667 and 91.9459 and 92.9597 and 81.7386 and 78.0118 and 75.2433; in the data set on SW48-PAR cells ([PhP072] 0.0001 M) it was 78.0907 and 76.0631 and 71.332 and 66.8313 and 68.322 and 64.4887. Further, the cell viability in the data set with SW48-G12D cells ([PhP072] 3.2e-8 M) is 102.762 and 97.2381 and 95.6914 and 100.978 and 97.4052 and 99.447; with SW48-G12D cells ([PhP072] 1.6e-7 M), 100.994 and 98.1219 and 99.0057 and 100.978 and 99.7022 and 99.9575; in the data set with SW48-G12D cells ([PhP072] 8e-7 M) it was 99.8895 and 99.2267 and 100.552 and 98.9365 and 101.489; in the data set with SW48-G12D cells ([PhP072] 4e-6 M), 98.5638 and 96.7962 and 95.0285 and 98.9365 and 100.723 and 98.6813; in the data set on SW48-G12D cells ([PhP072] 2e-5 M), 91.4933 and 92.1561 and 91.9352 and 92.8111 and 94.0872 and 91.5349; with SW48-G12D cells ([PhP072] 0.0001 M), 75.1427 and 76.0265 and 77.5732 and 78.5183 and 77.2421 and 80.3049. Besides, the Antiproliferative effect entry with SW48-PAR cells (MTT, 72 h) was “antiproliferative activity”; with SW48-G12D cells (MTT, 72 h), “antiproliferative activity”.

What is called IC50 is the concentration needed to halve the response being measured.

The record behind these values is PMC11292009, “Mapping protein binding sites by photoreactive fragment pharmacophores” (Communications Chemistry, 2024).
